Consider 34 compounds from patent US11845760B2, “PRMT5 inhibitors” (AMGEN INC., priority 2020, dated 2023).

The test system of assay [1] is HCT116 MTAP null cells. Kind of assay: HCT116 MTAP null cell line proliferation (CellTiter-Glo cell viability, 6 days). As to conditions: HCT116 MTAP null cells, 6 days of treatment, CellTiter-Glo cell viability, read-out: HCT-116 MTAP null IC50. It counts as cell-based. Summed up: (§1)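 Isogenic HCT116 pair (both MTAP alleles knocked out vs parent) in RPMI 1640 + 10% FBS, seeded overnight at 37° C, 5% CO2, then exposed 6 days to 8- or 9-point 1:3 dilutions from 1 or 10 μM. CellTiter-Glo luminescence; IC50 from sigmoidal fit, Hill slope fixed −1, top 100%, or 4-parameter logistic.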
On the technique in general: Cellular ATP, detected with luciferase, serves as a proxy for viable cell number.

In assay [2] the test system is HCT116 WT cells. Kind of assay: HCT116 WT cell line proliferation (CellTiter-Glo cell viability, 6 days). The assay is classed as cell-based. The settings on record: HCT116 WT (parent) cells, 6 days of treatment, CellTiter-Glo cell viability, read-out: HCT-116 WT IC50. Summed up:
as §1

Like-named read-outs stand apart in the source and are kept apart here.

What is called IC50 is the concentration that gives 50% inhibition.

In the case of `Nc1nc2cnc(C(=O)N3CCNC[C@@H]3c3ccc(C(F)(F)F)cc3)cc2c2c1COC2` (single isomer, unassigned) [Example 596, (4-amino-1,3-dihydrofuro[3,4-c][1,7]naphthyridin-8-yl)((2S)-2-(4-(trifluoromethyl)phenyl)-1-piperazinyl)methanone or (4-amino-1,3-dihydrofuro[3,4-c][1,7]naphthyridin-8-yl)((2R)-2-(4-(trifluoromethyl)phenyl)-1-piperazinyl)methanone], the IC50 in assay [1] (HCT116-MTAP null, 144 h) was 580 nM; in assay [2] (Homo sapiens, HCT-116, 144 h), above 10 µM.
For the compound `Nc1nc2cnc(C(=O)N3CCCOC[C@@H]3c3ccc(C(F)(F)F)cc3)cc2c2c1COC2` (single isomer, unassigned) [Example 597, (4-amino-1,3-dihydrofuro[3,4-c][1,7]naphthyridin-8-yl)((3S)-3-(4-(trifluoromethyl)phenyl)-1,4-oxazepan-4-yl)methanone or (4-amino-1,3-dihydrofuro[3,4-c][1,7]naphthyridin-8-yl)((3R)-3-(4-(trifluoromethyl)phenyl)-1,4-oxazepan-4-yl)methanone], the IC50 is 866 nM in assay [1] (HCT116-MTAP null, 144 h) and above 10 µM in assay [2] (Homo sapiens, HCT-116, 144 h).
The corresponding values for `Nc1nc2cnc(C(=O)N3CCC(F)(F)C[C@@H]3c3ccc(C(F)(F)F)cc3)cc2c2c1COC2` (single isomer, unassigned) [Example 598] are 807 nM and above 10 µM.
With `Nc1nc2cnc(C(=O)N3CCC(F)(F)C[C@H]3c3ccc(C(F)(F)F)cc3)cc2c2c1COC2` (single isomer, unassigned) [Example 599], the IC50 was above 10000 nM in assay [1] (HCT116-MTAP null, 144 h) and above 10 µM in assay [2] (Homo sapiens, HCT-116, 144 h).
The corresponding values for `Nc1nc2cnc(C(=O)N3CCC(F)(F)C[C@@H]3c3ccc(OC(F)(F)F)cc3)cc2c2c1COC2` (single isomer, unassigned) [Example 600] are 921 nM and above 10 µM.
Turning to `Nc1nc2cnc(C(=O)N3CCC(F)(F)C[C@H]3c3ccc(OC(F)(F)F)cc3)cc2c2c1COC2` (single isomer, unassigned) [Example 601], the IC50 is above 10000 nM in assay [1] (HCT116-MTAP null, 144 h) and above 10 µM in assay [2] (Homo sapiens, HCT-116, 144 h).
The corresponding values for `Nc1nc2cnc(C(=O)N3CCOC[C@@H]3c3c(F)cc(Br)cc3F)cc2c2c1COC2` (single isomer, unassigned) [Example 602] are 149 nM and 10 µM.
The corresponding values for `Nc1nc2ccc(C(=O)N3CCOC[C@@H]3c3ccc(CC(F)(F)F)cc3)cc2c2c1COC2` (single isomer, unassigned) [Example 603] are 420 nM and 10.2 µM.
In the same order, the values of `Nc1nc2cnc(C(=O)N3CCOC[C@@H]3c3ccc(CC(F)(F)F)cc3)cc2c2c1COC2` (single isomer, unassigned) [Example 604] are 87 nM and 7.27 µM.
Turning to `Cc1ccc([C@@H]2COCCN2C(=O)c2ccc3nc(N)c4c(c3c2)COC4)cn1` (single isomer, unassigned) [Example 605], the IC50 was above 1000 nM in assay [1] (HCT116-MTAP null, 144 h) and above 10 µM in assay [2] (Homo sapiens, HCT-116, 144 h).
Turning to `Cc1ccc([C@H]2COCCN2C(=O)c2ccc3nc(N)c4c(c3c2)COC4)cn1` (single isomer, unassigned) [Example 606], the 50% inhibitory concentration (IC50) in assay [1] (HCT116-MTAP null, 144 h) was 1030 nM; in assay [2] (Homo sapiens, HCT-116, 144 h), above 10 µM.
In the same order, the values of `Cc1ccc([C@H]2COCCN2C(=O)c2cc3c4c(c(N)nc3cn2)COC4)cn1` (single isomer, unassigned) [Example 607] are above 1000 nM and above 10 µM.
In the case of `Cc1ccc([C@@H]2COCCN2C(=O)c2cc3c4c(c(N)nc3cn2)COC4)cn1` (single isomer, unassigned) [Example 608], the IC50 is above 1000 nM in assay [1] (HCT116-MTAP null, 144 h) and above 10 µM in assay [2] (Homo sapiens, HCT-116, 144 h).
In the same order, the values of `Nc1nc2ccc(C(=O)N3CCOC[C@@H]3c3ccc(C(F)(F)F)nc3)cc2c2c1COC2` (single isomer, unassigned) [Example 609] are 207 nM and 9.11 µM.
In the same order, the values of `Nc1nc2ccc(C(=O)N3CCOC[C@H]3c3ccc(C(F)(F)F)nc3)cc2c2c1COC2` (single isomer, unassigned) [Example 610] are above 1000 nM and above 10 µM.
In the same order, the values of `Nc1nc2cnc(C(=O)N3CCOC[C@H]3c3cnc(C(F)(F)F)nc3)cc2c2c1COC2` (single isomer, unassigned) [Example 611] are above 1000 nM and above 10 µM.
With `Nc1nc2cnc(C(=O)N3CCOC[C@@H]3c3cnc(C(F)(F)F)nc3)cc2c2c1COC2` (single isomer, unassigned) [Example 612], the IC50 in assay [1] (HCT116-MTAP null, 144 h) is above 1000 nM; in assay [2] (Homo sapiens, HCT-116, 144 h), above 10 µM.
Take `Nc1nc2cnc(C(=O)N3CCOC[C@@H]3c3cnc(C(F)(F)F)cn3)cc2c2c1COC2` (single isomer, unassigned) [Example 613]: the IC50 in assay [1] (HCT116-MTAP null, 144 h) was 1830 nM; in assay [2] (Homo sapiens, HCT-116, 144 h) it was above 10 µM.
`Nc1nc2cnc(C(=O)N3CCOC[C@H]3c3cnc(C(F)(F)F)cn3)cc2c2c1COC2` (single isomer, unassigned) [Example 614]: the IC50 in assay [1] was above 10000 nM; in assay [2], above 10 µM.
On to `Nc1nc2cnc(C(=O)N3CCOC[C@@H]3c3cc(C(F)(F)F)cs3)cc2c2c1COC2` (single isomer, unassigned) [Example 615], for which the IC50 worked out at 241 nM in assay [1] (HCT116-MTAP null, 144 h) and 3.46 µM in assay [2] (Homo sapiens, HCT-116, 144 h).
Regarding `Nc1nc2cnc(C(=O)N3CCOC[C@H]3c3ccc(C(F)(F)F)s3)cc2c2c1COC2` (single isomer, unassigned) [Example 616], the IC50 in assay [1] (HCT116-MTAP null, 144 h) was 3240 nM; in assay [2] (Homo sapiens, HCT-116, 144 h), above 10 µM.
In the same order, the values of `Nc1nc2cnc(C(=O)N3CCOC[C@@H]3c3ccc(C(F)(F)F)s3)cc2c2c1COC2` (single isomer, unassigned) [Example 617] are 228 nM and 5.73 µM.
The corresponding values for `Nc1nc2cnc(C(=O)N3CCOC[C@@H]3c3cc(Cl)c(Cl)s3)cc2c2c1COC2` (single isomer, unassigned) [Example 618] are 300 nM and above 10 µM.
In the same order, the values of `C[C@H]1OCc2c1c(N)nc1cnc(C(=O)N3CCOC[C@@H]3c3ccc(OC(F)(F)F)cc3)cc21` (single isomer, unassigned) [Example 619] are 49 nM and 1.98 µM.
Consider `Cn1ncc2c(N)nc3cc(F)c(C(=O)N4C[C@@H]5C[C@]5(c5ccc(C(F)(F)F)cc5)C4)cc3c21` (single isomer, unassigned) [Example 620], for which the IC50 in assay [1] (HCT116-MTAP null, 144 h) worked out at 634 nM; in assay [2] (Homo sapiens, HCT-116, 144 h), 4.23 µM.
Take `Cn1ncc2c(N)nc3cc(F)c(C(=O)N4C[C@H]5C[C@@]5(c5ccc(C(F)(F)F)cc5)C4)cc3c21` (single isomer, unassigned) [Example 621]: the IC50 in assay [1] (HCT116-MTAP null, 144 h) amounted to 175 nM; in assay [2] (Homo sapiens, HCT-116, 144 h), 4.41 µM.
Regarding `Nc1nc2ccc(C(=O)N3CCOC[C@@H]3c3ncc(Br)cc3F)cc2c2c1COC2` (single isomer, unassigned) [Example 622], the IC50 was 239 nM in assay [1] (HCT116-MTAP null, 144 h) and 7.95 µM in assay [2] (Homo sapiens, HCT-116, 144 h).
Turning to `Nc1nc2ccc(C(=O)N3CCOCC3c3ncccn3)cc2c2c1COC2` (centres unmarked) [Example 300, (4-amino-1,3-dihydrofuro[3,4-c]quinolin-8-yl)(3-(pyrimidin-2-yl)morpholino)methanone], the IC50 in assay [1] (HCT116-MTAP null, 144 h) is above 1000 nM; in assay [2] (Homo sapiens, HCT-116, 144 h), above 10 µM.
The corresponding values for `Nc1nc2ccc(C(=O)N3CCOC[C@@H]3c3ccc(OC(F)(F)F)cc3)cc2c2c1COC2` [Example 335, (4-amino-1,3-dihydrofuro[3,4-c]quinolin-8-yl)-[(3S)-3-[4-(trifluoromethoxy)phenyl]morpholin-4-yl]methanone] are 91 nM and 2.69 µM.
In the same order, the values of `C[C@H]1OCc2c1c(N)nc1ccc(C(=O)N3CCOC[C@@H]3c3ccc(C(F)(F)C(F)(F)F)cc3)cc21` [Example 336, ((3R)-4-amino-3-methyl-1,3-dihydrofuro[3,4-c]quinolin-8-yl)((3S)-3-(4-(pentafluoroethyl)phenyl)-4-morpholinyl)methanone] are 39 nM and 1.62 µM.
The corresponding values for `Cn1ncc2c3cc(C(=O)N4CCOC[C@@H]4c4ccc(OC(F)F)cn4)ccc3nc(N)c21` [Example 369, (4-amino-3-methyl-3H-pyrazolo[3,4-c]quinolin-8-yl)((3S)-3-(5-(difluoromethoxy)-2-pyridinyl)-4-morpholinyl)methanone] are 340 nM and 15.4 µM.
Regarding `C[C@@H]1COC[C@H](c2ccc(C(F)(F)F)cn2)N1C(=O)c1ccc2nc(N)c3c(cnn3C)c2c1` [Example 370, (4-amino-3-methyl-3H-pyrazolo[3,4-c]quinolin-8-yl)((3R,5S)-3-methyl-5-(5-(trifluoromethyl)-2-pyridinyl)-4-morpholinyl)methanone], the concentration for half-maximal inhibition (IC50) in assay [1] (HCT116-MTAP null, 144 h) was found to be 30 nM; in assay [2] (Homo sapiens, HCT-116, 144 h), 2.02 µM.
In the same order, the values of `Cn1ncc2c(N)nc3cnc(C(=O)N4CCOC[C@@H]4c4ccc(C(F)(F)F)cc4)cc3c21` [Example 371, (4-amino-1-methyl-1H-pyrazolo[4,3-c][1,7]naphthyridin-8-yl)((3S)-3-(4-(trifluoromethyl)phenyl)-4-morpholinyl)methanone] are 22 nM and 0.707 µM.
With `CC1(C)OCc2c1c(N)nc1ccc(C(=O)N3CCOC[C@@H]3c3ccc(OC(F)(F)F)cc3)cc21` [Example 382, (4-amino-3,3-dimethyl-1H-furo[3,4-c]quinolin-8-yl)-[(3S)-3-[4-(trifluoromethoxy)phenyl]morpholin-4-yl]methanone], the IC50 is 786 nM in assay [1] (HCT116-MTAP null, 144 h) and above 10 µM in assay [2] (Homo sapiens, HCT-116, 144 h).
